These results are taken from US8269026B2, “Lupane derivatives useful for treating HIV” (priority 2008, dated 2012).

Some results are limits rather than exact numbers.

The test deals with HIV-1 (HIVIIIB) replication in MT2 cell line. Kind of test: HIV-1 replication in MT2 cell line with and without 30% human serum (viral RT activity in supernatant). To be noted: Human immunodeficiency virus 1, MT2 cells, with 30% human serum, average IC50 if tested more than once, read-out: MT2 (HIVIIIB) with HS 30% IC50 range. The class given is cell-based. Summed up: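 Read-out is supernatant reverse transcriptase activity on day 5 post-infection, giving IC50 and IC90. Compounds were titrated in complete medium ± 30% human serum, re-dosed after 3 days, on MT2 cells exposed for 3 h to HIVIIIB at MOI 0.5 then washed.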
What is called IC50 is the concentration at which inhibition is half-maximal. In the case of `CC(C)C1=C2[C@H]3CC[C@@H]4[C@@]5(C)CC[C@H](OC(=O)CC(C)(C)C(=O)O)C(C)(C)C5CC[C@@]4(C)[C@]3(C)CC[C@@]2(NC(=O)NC[C@@H]2CCCN2)CC1=O` (stereo partly drawn) [17-38, 3β-O-(3′,3′-Dimethylsuccinyl)-17β-(3-(S)-1-pyrrolidin-2-ylmethyl-ureido)-21-oxolup-18-ene], the IC50 was < 199 nM.
On to `CNC1CCN(C(=O)N[C@@]23CC[C@]4(C)C(CCC5[C@@]6(C)CC[C@H](OC(=O)CC(C)(C)C(=O)O)C(C)(C)C6CC[C@]54C)C2=C(C(C)C)C(=O)C3)CC1` (stereo partly drawn) [17-39, 3β-O-(3′,3′-Dimethylsuccinyl)-17β-[(4-methylamino-piperidine-1-carbonyl)-amino]-21-oxolup-18-ene], for which the half-maximal inhibitory concentration (IC50) was in the range of 200 to 999 nM.
`CC(C)C1=C2C3CCC4[C@@]5(C)CC[C@H](OC(=O)CC(C)(C)C(=O)O)C(C)(C)C5CC[C@@]4(C)[C@]3(C)CC[C@@]2(NC(=O)N2CC[C@@H](NC(=O)OC(C)(C)C)C2)CC1=O` (stereo partly drawn) [17-40, 3β-O-(3′,3′-Dimethylsuccinyl)-17β-[((R)-3-tert-butyloxycarbonylamino-pyrrolidine-1-carbonyl)-amino]-21-oxolup-18-ene]: the 50% inhibitory concentration (IC50) was < 199 nM.
Under `CC(C)C1=C2C3CCC4[C@@]5(C)CC[C@H](OC(=O)CC(C)(C)C(=O)O)C(C)(C)C5CC[C@@]4(C)[C@]3(C)CC[C@@]2(NC(=O)N2CC[C@H](NC(=O)OC(C)(C)C)C2)CC1=O` (stereo partly drawn) [17-41, 3β-O-(3′,3′-Dimethylsuccinyl)-17β-[((S)-3-tert-butyloxycarbonylamino-pyrrolidine-1-carbonyl)-amino]-21-oxolup-18-ene] stands < 199 nM; under `CC(C)C1=C2C3CCC4[C@@]5(C)CC[C@H](OC(=O)CC(C)(C)C(=O)O)C(C)(C)C5CC[C@@]4(C)[C@]3(C)CC[C@@]2(NC(=O)N2CC[C@@H](N)C2)CC1=O` (stereo partly drawn) [17-42, 3β-O-(3′,3′-Dimethylsuccinyl)-17β-[((R)-3-amino-pyrrolidine-1-carbonyl)-amino]-21-oxolup-18-ene], 200 to 999 nM.
Under `CC(C)C1=C2C3CCC4[C@@]5(C)CC[C@H](OC(=O)CC(C)(C)C(=O)O)C(C)(C)C5CC[C@@]4(C)[C@]3(C)CC[C@@]2(NC(=O)N2CC[C@H](N)C2)CC1=O` (stereo partly drawn) [17-43, 3β-O-(3′,3′-Dimethylsuccinyl)-17β-[((S)-3-amino-pyrrolidine-1-carbonyl)-amino]-21-oxolup-18-ene] stands < 199 nM; under `CC(C)C1=C2[C@H]3CC[C@@H]4[C@@]5(C)CC[C@H](OC(=O)CC(C)(C)C(=O)O)C(C)(C)[C@@H]5CC[C@@]4(C)[C@]3(C)CC[C@@]2(NC(=O)Nc2cncnc2)CC1=O` [17-44, 3β-O-(3′,3′-Dimethylsuccinyl)-17β-(N′-pyrimidin-5-yl-ureido)-21-oxolup-18-ene], < 199 nM; under `Cc1nnc(NC(=O)N[C@@]23CC[C@]4(C)C(CCC5[C@@]6(C)CC[C@H](OC(=O)CC(C)(C)C(=O)O)C(C)(C)C6CC[C@]54C)C2=C(C(C)C)C(=O)C3)s1` (stereo partly drawn) [17-45, 3β-O-(3′,3′-Dimethylsuccinyl)-17β-(N′-5-methyl-[1,3,4]thiadiazol-2-yl-ureido)-21-oxolup-18-ene], < 199 nM.
Regarding `CC(C)C1=C2[C@H]3CC[C@@H]4[C@@]5(C)CC[C@H](OC(=O)CC(C)(C)C(=O)O)C(C)(C)[C@@H]5CC[C@@]4(C)[C@]3(C)CC[C@@]2(NC(=O)Nc2ccncn2)CC1=O` [17-46, 3β-O-(3′,3′-Dimethylsuccinyl)-17β-(N′-pyrimidin-4-yl-ureido)-21-oxolup-18-ene], the IC50 was < 199 nM.
With `Cc1cc(NC(=O)N[C@@]23CC[C@]4(C)[C@H](CC[C@@H]5[C@@]6(C)CC[C@H](OC(=O)CC(C)(C)C(=O)O)C(C)(C)[C@@H]6CC[C@]54C)C2=C(C(C)C)C(=O)C3)ccn1` [17-47, 3β-O-(3′,3′-Dimethylsuccinyl)-17β-(N′-2-methylpyridin-4-yl-ureido)-21-oxolup-18-ene] the figure was < 199 nM; with `CC(C)C1=C2C3CCC4[C@@]5(C)CC[C@H](OC(=O)CC(C)(C)C(=O)O)C(C)(C)C5CC[C@@]4(C)[C@]3(C)CC[C@@]2(NC(=O)N(C)C)CC1=O` (stereo partly drawn) [17-48, 3β-O-(3′,3′-Dimethylsuccinyl)-17β-[N′,N′-dimethyl-ureido]-21-oxolup-18-ene], < 199 nM; with `CC(C)C1=C2C3CCC4[C@@]5(C)CC[C@H](OC(=O)CC(C)(C)C(=O)O)C(C)(C)C5CC[C@@]4(C)[C@]3(C)CC[C@@]2(NC(=O)N[C@@H](C)C(F)(F)F)CC1=O` (stereo partly drawn) [17-50, 3β-O-(3′,3′-Dimethylsuccinyl)-17β-[N′-((S)-2,2,2-trifluoro-1-methyl-ethyl)-ureido]-21-oxolup-18-ene], < 199 nM.
Regarding `CC(C)C1=C2C3CCC4[C@@]5(C)CC[C@H](OC(=O)CC(C)(C)C(=O)O)C(C)(C)C5CC[C@@]4(C)[C@]3(C)CC[C@@]2(NC(=O)N[C@H](C)C(F)(F)F)CC1=O` (stereo partly drawn) [17-51, 3β-O-(3′,3′-Dimethylsuccinyl)-17β-[N′-((R)-2,2,2-trifluoro-1-methyl-ethyl)-ureido]-21-oxolup-18-ene], the IC50 is < 199 nM.
For `CC(C)C1=C2C3CCC4[C@@]5(C)CC[C@H](OC(=O)CC(C)(C)C(=O)O)C(C)(C)C5CC[C@@]4(C)[C@]3(C)CC[C@@]2(NC(=O)NCc2ccncn2)CC1=O` (stereo partly drawn) [17-52, 3β-O-(3′,3′-Dimethylsuccinyl)-17β-[N′-(pyrimidin-4-ylmethyl)ureido]-21-oxolup-18-ene], the concentration for half-maximal inhibition (IC50) was < 199 nM.
In the case of `CC(C)C1=C2C3CCC4[C@@]5(C)CC[C@H](OC(=O)CC(C)(C)C(=O)O)C(C)(C)C5CC[C@@]4(C)[C@]3(C)CC[C@@]2(NC(=O)N[C@@H](C)C2CCCCC2)CC1=O` (stereo partly drawn) [17-54, 3β-O-(3′,3′-Dimethylsuccinyl)-17β-[N′-((S)-1-cyclohexyl-ethyl)ureido]-21-oxolup-18-ene], the IC50 is < 199 nM.
Under `CC(C)C1=C2C3CCC4[C@@]5(C)CC[C@H](OC(=O)CC(C)(C)C(=O)O)C(C)(C)C5CC[C@@]4(C)[C@]3(C)CC[C@@]2(NC(=O)N[C@H](C)C2CCCCC2)CC1=O` (stereo partly drawn) [17-55, 3β-O-(3′,3′-Dimethylsuccinyl)-17β-[N′-((R)-1-cyclohexyl-ethyl)ureido]-21-oxolup-18-ene] stands < 199 nM; under `CC(C)C1=C2C3CCC4[C@@]5(C)CC[C@H](OC(=O)CC(C)(C)C(=O)O)C(C)(C)C5CC[C@@]4(C)[C@]3(C)CC[C@@]2(NC(=O)NC(C)(C)C(F)(F)F)CC1=O` (stereo partly drawn) [17-56, 3β-O-(3′,3′-Dimethylsuccinyl)-17β-[N′-(2,2,2-trifluoro-1,1-dimethyl-ethyl)ureido]-21-oxolup-18-ene], < 199 nM; under `CC(C)C1=C2C3CCC4[C@@]5(C)CC[C@H](OC(=O)CC(C)(C)C(=O)O)C(C)(C)C5CC[C@@]4(C)[C@]3(C)CC[C@@]2(NC(=O)NC2CCC(F)(F)CC2)CC1=O` (stereo partly drawn) [17-57, 3β-O-(3′,3′-Dimethylsuccinyl)-17β-[N′-(4,4-difluorocyclohexyl)ureido]-21-oxolup-18-ene], < 199 nM.
Take `CC(C)C1=C2C3CCC4[C@@]5(C)CC[C@H](OC(=O)CC(C)(C)C(=O)O)C(C)(C)C5CC[C@@]4(C)[C@]3(C)CC[C@@]2(NC(=O)N2CCC(F)(F)C2)CC1=O` (stereo partly drawn) [17-58]: the IC50 was < 199 nM.
Under `CC(C)C1=C2C3CCC4[C@@]5(C)CC[C@H](OC(=O)CC(C)(C)C(=O)O)C(C)(C)C5CC[C@@]4(C)[C@]3(C)CC[C@@]2(NC(=O)N2CCC(F)(F)CC2)CC1=O` (stereo partly drawn) [17-59, 3β-O-(3′,3′-Dimethylsuccinyl)-17β-[(4,4-difluoro-piperidine-1-carbonyl)-amino]-21-oxolup-18-ene] stands < 199 nM.
With `CC(C)C1=C2C3CCC4[C@@]5(C)CC[C@H](OC(=O)CC(C)(C)C(=O)O)C(C)(C)C5CC[C@@]4(C)[C@]3(C)CC[C@@]2(NC(=O)NCC2CCC(F)(F)CC2)CC1=O` (stereo partly drawn) [17-60, 3β-O-(3′,3′-Dimethylsuccinyl)-17β-[N′-(4,4-difluoro-cyclohexyl-methyl)ureido]-21-oxolup-18-ene], the half-inhibitory concentration (IC50) is < 199 nM.
For the compound `CC(C)C1=C2C3CCC4[C@@]5(C)CC[C@H](OC(=O)CC(C)(C)C(=O)O)C(C)(C)C5CC[C@@]4(C)[C@]3(C)CC[C@@]2(NC(=O)N[C@@H](C)c2ccccc2)CC1=O` (stereo partly drawn) [17-61, 3β-O-(3′,3′-Dimethylsuccinyl)-17β-[N′-((S)-1-phenyl-ethyl)-ureido]-21-oxolup-18-ene], the half-inhibitory concentration (IC50) was < 199 nM.
In the case of `CC(C)C1=C2C3CCC4[C@@]5(C)CC[C@H](OC(=O)CC(C)(C)C(=O)O)C(C)(C)C5CC[C@@]4(C)[C@]3(C)CC[C@@]2(NC(=O)N[C@H](C)c2ccccc2)CC1=O` (stereo partly drawn) [17-62, 3β-O-(3′,3′-Dimethylsuccinyl)-17β-[N′-((R)-1-phenyl-ethyl)-ureido]-21-oxolup-18-ene], the concentration for half-maximal inhibition (IC50) was < 199 nM.
With `CC(C)C1=C2C3CCC4[C@@]5(C)CC[C@H](OC(=O)CC(C)(C)C(=O)O)C(C)(C)C5CC[C@@]4(C)[C@]3(C)CC[C@@]2(NC(=O)NC(C)(C)c2ccccc2)CC1=O` (stereo partly drawn) [17-63, 3β-O-(3′,3′-Dimethylsuccinyl)-17β-[N′-(1-methyl-1-phenyl-ethyl)-ureido]-21-oxolup-18-ene] the figure was < 199 nM; with `CC(C)C1=C2C3CCC4[C@@]5(C)CC[C@H](OC(=O)CC(C)(C)C(=O)O)C(C)(C)C5CC[C@@]4(C)[C@]3(C)CC[C@@]2(NC(=O)NCc2cccs2)CC1=O` (stereo partly drawn) [17-64, 3β-O-(3′,3′-Dimethylsuccinyl)-17β-[N′-(thiophen-2-ylmethyl)-ureido]-21-oxolup-18-ene], < 199 nM.
Consider `Cc1nnc(CNC(=O)N[C@@]23CC[C@]4(C)C(CCC5[C@@]6(C)CC[C@H](OC(=O)CC(C)(C)C(=O)O)C(C)(C)C6CC[C@]54C)C2=C(C(C)C)C(=O)C3)o1` (stereo partly drawn) [17-65, 3β-O-(3′,3′-Dimethylsuccinyl)-17β-[N′-(2-methyl-[1,3,4]oxadiazol-2-ylmethyl)-ureido]-21-oxolup-18-ene], for which the IC50 is < 199 nM.
Consider `CC(C)C1=C2C3CCC4[C@@]5(C)CC[C@H](OC(=O)CC(C)(C)C(=O)O)C(C)(C)C5CC[C@@]4(C)[C@]3(C)CC[C@@]2(NC(=O)NC2(c3ccccc3)CC2)CC1=O` (stereo partly drawn) [17-66, 3β-O-(3′,3′-Dimethylsuccinyl)-17β-[N′-(1-phenyl-cyclopropyl)-ureido]-21-oxolup-18-ene], for which the IC50 is < 199 nM.
